Measured values from patent US20050067347A1, “Sustainable process for the treatment and detoxification of liquid waste” (priority 2001, published 2005).

Test system: Pycnoporus sanguineus MUCL 41582
Test: Laccase activity of fungal culture with inductors
Assay type: cell-based
Settings: for Enzymatic activity: laccase activity, inductor added after 2 days of pre-culture, measured after 5 days of incubation
Method: In an example, the inductors NY3, NY5 and RBBR were added to a fungal culture of Pycnoporus sanguineus MUCL 41582 after 2 days of pre-culture. Laccase activity was measured after 5 days of incubation of the culture with the inductors. Results are indicated in the below-given Table 2 and show clearly that laccase activity is enhanced when the fungus is cultured in the presence of inductors.

Structure (SMILES)	Enzymatic activity	increase of laccase activity (versus culture without inductor)
Cc1ccc(OS(=O)(=O)Oc2ccc(Nc3cc(S(=O)(=O)O)c(N)c4c3C(=O)c3ccccc3C4=O)cc2)cc1 [NY5]	11.60 nmol/mL	more than 20 fold
Nc1c(S(=O)(=O)O)cc(NC2CCCCC2)c2c1C(=O)c1ccccc1C2=O [NY3]	3.87 nmol/mL	–
Nc1c(S(=O)(=O)[O-])cc(Nc2cccc(S(=O)(=O)CCOS(=O)(=O)[O-])c2)c2c1C(=O)c1ccccc1C2=O.[Na+].[Na+] [RBBR]	5.40 nmol/mL	–
